Reference: patent US20250312352A1, “GLP-1R MODULATING COMPOUNDS” (Gilead Sciences, Inc., priority 2021, published 2025)

How the values were obtained:
[1] = Pharmacokinetic (PK) studies, monkey oral PK; type: in vivo, Cynomolgus monkeys; settings: for Tmax / AUC(0-t) / Cmax / bioavailability: Cynomolgus monkey, plasma; for Tmax / AUC(0-t) / Cmax: single oral dose 2 mg/kg (CE-1: 1 mg/kg); for AUC(0-t): read-out: AUC0-24 (Arbitrary units); for Cmax: read-out: Cmax (Arbitrary unit); for bioavailability: oral dose 2 mg/kg (CE-1: 1 mg/kg)
Experimental: Examples 54 and 253 were tested along with comparative examples CE-1 and CE-2.
Compounds CE-2, Example 54 or Example 253 were combined with a mixture of 10% NMP (v:v) and 90% PEG300 (v:v), and the mixture was stirred until a homogeneous solution was obtained (1 mg/mL final concentration of test article).
Compound CE-1 was combined with a mixture of 15% 2-hydroxypropyl-o-cyclodextrin (w:v) and 85% Mili-Q water (v:v), and the mixture was stirred until a homogeneous solution was obtained (0.5 mg/mL final concentration of test article).
Young adult non-naive Cynomolgus monkeys with weight about 2.5-5 kg (n=1-3/test article/route) were fasted overnight and then dosed with either CE-1 (at 1 mg test article per kg animal weight), CE-2 (at 2 mg test article per kg animal weight), Example 54 (at 2 mg test article per kg animal weight), or Example 253 (at 2 mg test article per kg animal weight). Food was supplied approximately 4 hours post dose and animals were provided with free access to water all the time. Animals were restrained at designated time points for blood sampling. Approximately 500 μL of blood samples was taken via cephalic or saphenous vein into EDTA-K2 tubes. For oral administration (PO): blood samples were generally collected pre-dose, and at 15 min, 30 min, 1 hr, 2 hr, 4 hr, 8 hr, 12 hr, and 24 hr time points after dosing. Blood was maintained on wet ice, in chilled cryoracks, or at approximately 5° C. prior to centrifugation to obtain plasma. Centrifugation was conducted within 1 hour of collection. Plasma (approximately 200 μL) was placed into a micronic tubes containing 4 μL of formic acid (the final concentration of formic acid in plasma was approximately 2%) and samples were vortex mixed. Samples were maintained on dry ice prior to storage at approximately −70° C.
LC-MS/MS assays were utilized to quantify the concentration of the test articles in plasma as follows.
50 μL plasma sample was mixed with 350 μL of ACN combined with an internal standard. The mixture was then vortexed for about 1-5 min, and centrifuged at about 4,000-5,800 rpm for about […]. An aliquot of 1 μL supernatant was used for LC-MS/MS analysis.
MS conditions: A Sciex API 6500 equipped with electrospray ionization in the positive ion selected reaction monitoring mode was used for detection.
HPLC conditions • Mobile Phase A: H2O-0.1% Formic Acid • Mobile Phase B: ACN-0.1% Formic Acid
• Column: Phenomenex Kinetex XBC18 (2.1×50 mm, 2.6 μm) with a flow rate of 1.20 mL/min • Column temperature: 60° C. • Retention time: approximately between 0.85 to 1.05 • min
Pharmacokinetics parameters, including area under the curve (AUC0-24), maximum plasma concentration (Cmax), time to reach maximum plasma concentration (Tma), oral bioavailability (F %), etc., were calculated using Dotmatics software in non-compartmental model.

GLP-1R = target: T1, GLP-1R (Homo sapiens, UniProt P43220); experiment: GLP-1R activation cAMP assay (Assay 1 or Assay 2); type: cell-based; settings: cAMP increase in CHO cells stably expressing GLP-1R; compounds run on one of the two cAMP assays
T1 construct: host or cells: CHO cells
Method in brief: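 EC50 values come from a sigmoidal fit of HTRF-detected cAMP rise versus log agonist concentration. GLP-1R-expressing CHO cells, equilibrated 1 h at 37 °C in HBSS with HEPES and BSA, received a 10-point compound dose series for 30 min before detection.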

T1 sequence (P43220 24-463): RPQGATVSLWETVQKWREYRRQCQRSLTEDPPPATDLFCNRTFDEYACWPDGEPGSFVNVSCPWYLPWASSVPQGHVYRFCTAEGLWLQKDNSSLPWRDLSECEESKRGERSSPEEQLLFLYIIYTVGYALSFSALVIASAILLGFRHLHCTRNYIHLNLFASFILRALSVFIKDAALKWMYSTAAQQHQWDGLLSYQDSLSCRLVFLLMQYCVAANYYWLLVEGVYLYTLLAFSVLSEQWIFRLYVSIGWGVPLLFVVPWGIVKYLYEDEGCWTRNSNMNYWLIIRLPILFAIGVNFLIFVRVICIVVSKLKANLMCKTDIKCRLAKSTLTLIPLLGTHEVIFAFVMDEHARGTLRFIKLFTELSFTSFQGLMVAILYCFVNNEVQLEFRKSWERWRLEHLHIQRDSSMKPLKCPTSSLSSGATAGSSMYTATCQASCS

Row | Compound | Tmax [1] [h] | AUC(0-t) [1] [µM·h] | Cmax [1] [nM] | bioavailability [1] [%] | EC50 (GLP-1R) [nM] | plasma exposures after the 12 h period ([1]; single oral dose of 1 mg/kg, monkey, FIG. 1)
1 | O=C(O)c1ccc2nc(Cc3cc(F)c(-c4cccc(OCc5ncc(C(F)(F)F)s5)n4)cc3F)n(C[C@@H]3CCO3)c2c1 [Example 54, (S)-2-(2,5-difluoro-4-(6-((5-(trifluoromethyl)thiazol-2-yl)methoxy)pyridin-2-yl)benzyl)-1-(oxetan-2-ylmethyl)-1H-benzo[d]imidazole-6-carboxylic acid] | 4.7 ± 1.2 | 14.2 ± 7.69 | 1270 ± 628 | 89 ± 33 | 0.09 | –
2 | O=C(O)c1cc(F)c2nc(Cc3cc(F)c(-c4cccc(OCc5ncc(C(F)(F)F)s5)n4)cc3F)n(C[C@@H]3CCO3)c2c1 [Example 253, (S)-2-(2,5-difluoro-4-(6-((5-(trifluoromethyl)thiazol-2-yl)methoxy)pyridin-2-yl)benzyl)-4-fluoro-1-(oxetan-2-ylmethyl)-1H-benzo[d]imidazole-6-carboxylic acid] | 5.3 ± 2.3 | 6.39 ± 2.36 | 582 ± 296 | 55.7 ± 20.6 | – | –

Next, values leading:

Row | Tmax [1] [h] | AUC(0-t) [1] [µM·h] | Cmax [1] [nM] | bioavailability [1] [%] | EC50 (GLP-1R) [nM] | plasma exposures after the 12 h period ([1]; single oral dose of 1 mg/kg, monkey, FIG. 1) | Compound
3 | – | – | – | – | – | below the detection limit | N#Cc1ccc(COc2cccc(C3CCN(Cc4nc5ccc(C(=O)O)cc5n4C[C@@H]4CCO4)CC3)n2)c(F)c1 [CE-1, (S)-2-((4-(6-((4-cyano-2-fluorobenzyl)oxy)pyridin-2-yl)piperidin-1-yl)methyl)-1-(oxetan-2-ylmethyl)-1H-benzo[d]imidazole-6-carboxylic acid, reference compound]
4 | – | – | – | 2.5 ± 0.2 | – | – | N#Cc1ccc(COc2cccc(C3CCN(Cc4nc5ccc(C(=O)O)cc5n4C[C@@H]4CCO4)CC3)n2)c(F)c1 [Compound CE-1]
5 | – | – | – | 27.4 ± 12.9 | – | – | N#Cc1ccc(COc2cccc(-c3cc(F)c(Cc4nc5ccc(C(=O)O)cc5n4C[C@@H]4CCO4)cc3F)n2)c(F)c1 [Compound CE-2]
